Measured values reported in patent US9765039B2, “Biaryl derivatives as bromodomain inhibitors” (Zenith Epigenetics Ltd., priority 2012, dated 2017).

How the values were obtained:
[1] = molecular target: T1, Brd4 bromodomain 1 (Homo sapiens, UniProt O60885); assay: Inhibition of tetra-acetylated histone H4 binding to BET bromodomains (TR-FRET); parameters: key: Active: Compounds with an IC50 value less than 30 μM were deemed to be active.; Not Active: Compounds with an IC50 value less than 30 μM were deemed to be active; settings: first bromodomain of Brd4, tetra-acetylated histone H4 peptide
T1 construct: made in house; host or cells: E. coli BL21(DE3)
Procedure, shortened: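 TR-FRET with N-terminally His-tagged bromodomains (200 nM, E. coli-expressed, Ni affinity and SEC-purified) and biotinylated tetra-acetylated histone H4 peptide (25–50 nM), detected with Eu-cryptate streptavidin and XL665 anti-His antibody. Buffer 30 mM HEPES pH 7.4, 320 mM KF, 0.08% BSA, 0.2% DMSO; 2 h RT. IC50 from decrease in 665/620 nm ratio.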

[2] = tested on: c-myc; assay: Inhibition of c-myc expression in cancer cell lines (mRNA, real-time PCR); type: cell-based; parameters: key: Active: Compounds with an IC50 value less than 30 μM were deemed to be active; settings: Human AML MV4-11 cells, 3 hours
Procedure, shortened: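 MV4-11 cells (2.5×10^4) exposed to compound or 0.1% DMSO for 3 h at 37° C, then lysed for mRNA isolation. c-myc and cyclophilin cDNAs co-amplified by duplex RT real-time PCR. IC50 from dose-response curve.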

[3] = tested on: Human AML MV-4-11 cells; assay: Inhibition of cell proliferation in cancer cell lines (CellTiter Aqueous One); type: cell-based; parameters: key: Active: Compounds with an IC50 value less than 30 μM were deemed to be active.; Not Active: Compounds with an IC50 value less than 30 μM were deemed to be active; settings: 72 hours
Procedure, shortened: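 Exponentially growing MV-4-11 cells were treated immediately with two-fold compound dilutions from 30 µM to 0.2 µM in triplicate for 72 h at 37 °C. Viability was read by MTS (CellTiter Aqueous One) absorbance at 490 nm after 3-4 h; % proliferation vs DMSO gave IC50.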

[4] = tested on: hIL-6 mRNA; assay: Inhibition of hIL-6 mRNA transcription in LPS-stimulated U937 macrophages; type: cell-based, human; parameters: key: Active: Compounds with an IC50 value less than 30 μM are deemed to be active; settings: U937 differentiated into macrophages, 1 h pretreatment, lipopolysaccharide 3 h
Procedure, shortened: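 U937 cells differentiated 3 days with 60 ng/mL PMA, pretreated 1 h with compound, then stimulated with […] E. coli LPS for 3 h at 37° C. hIL-6 mRNA quantified by one-step real-time RT-PCR, Ct normalised to internal control and expressed as fold induction relative to control.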

[5] = tested on: hApoA-1 mRNA; assay: Up-regulation of hApoA-1 mRNA transcription in Huh7 cells; type: cell-based, human; parameters: key: Active: Compounds with an EC170 value less than 30 μM are deemed to be active.; Not Active: Compounds with an EC170 value less than 30 μM are deemed to be active; settings: 48 hrs treatment, ApoA-I mRNA
Procedure, shortened: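 Huh7 cells plated 24 h before compound, then treated 48 h; mRNA isolated from lysates and ApoA-I quantified by one-step real-time PCR. Fold induction derived from Ct values relative to the matching DMSO control; EC170 reported as activity measure.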

[6] = tested on: IL-6; assay: In vivo efficacy in mouse endotoxemia model (IL-6); settings: C57/B16 mice; orally at 75 mg/kg; 4 hour challenge with LPS 0.5 mg/kg intraperitoneally
Procedure: Sub lethal doses of Endotoxin (E. coli bacterial lipopolysaccharide) were administered to animals to produce a generalized inflammatory response which was monitored by increases in secreted cytokines. Compounds were administered to C57/B16 mice orally at 75 mg/kg dose to evaluate inhibition in IL-6 and IL-17 cytokines post 4 hour challenge with Lipopolysaccharide (LPS) at 0.5 mg/kg dose intraperitoneally.

[7] = tested on: arthritic rats; assay: In vivo efficacy in rat collagen induced arthritis; parameters: species or system female Lewis strain of rats; settings: collagen Day 1 and 7, dosed Day 11 to Day 17
Procedure: Rat collagen-induced arthritis is an experimental model of polyarthritis that has been widely used for preclinical testing of numerous anti-arthritic agents. Following administration of collagen, this model establishes a measurable polyarticular inflammation, marked cartilage destruction in association with pannus formation and mild to moderate bone resorption and periosteal bone proliferation. In this model, collagen was administered to female Lewis strain of rats on Day 1 and 7 of study and dosed with compounds from Day 11 to Day 17. Compounds were evaluated to assess the potential to inhibit the inflammation (including paw swelling), cartilage destruction and bone resorption in arthritic rats, using a model in which the treatment is administered after the disease has been established.

COc1cc(OC)c2c(=O)[nH]c(-c3ccc(OCCNC(C)C)c(-c4ccc(S(C)(=O)=O)cc4)n3)nc2c1 [Example 27, 2-(5-(2-(Isopropylamino)ethoxy)-6-(4-(methylsulfonyl)phenyl)pyridin-2-yl)-5,7-dimethoxyquinazolin-4(3H)-one]
FRET activity (IC50 < 30 μM) [1]: Active
c-myc activity (IC50 < 30 μM) [2]: Active
cell proliferation activity (IC50 < 30 μM) [3]: Active
IL-6 activity (IC50 < 30 μM) [4]: Active
ApoA-1 Activity (EC170 < 30 μM) [5]: Active
In vivo Activity (IL-6) [6]: Active

COc1cc(OC)c2c(=O)[nH]c(-c3ccc(OC)c(-c4ccc([S+](C)[O-])cc4)n3)nc2c1 (stereo not shown) [Example 50, 5,7-Dimethoxy-2-(5-methoxy-6-(4-(methylsulfinyl)phenyl)pyridin-2-yl)quinazolin-4(3H)-one]
FRET activity (IC50 < 30 μM) [1]: Active
c-myc activity (IC50 < 30 μM) [2]: Active
cell proliferation activity (IC50 < 30 μM) [3]: Active
IL-6 activity (IC50 < 30 μM) [4]: Active
ApoA-1 Activity (EC170 < 30 μM) [5]: Active
In vivo Activity [7]: Active
melting point: 266 to 267 °C
